Laboratory results from US20120028288A1, “Method for Measuring Cell Motility and System Therefor” (priority 2005, published 2012).
“Also recorded” adds a separate entry of the source.

How the values were obtained:
[1] = test system: eosinophils obtained from blood samples of normal subjects; assay: Eosinophil chemotactic experiment toward various chemotactic factors (time-lapse tracking; VD plot, CRT and CLT analysis); conditions: for rate of cells having a high specific motility in the concentration gradient direction in the VD plot / Chemotaxis Lifetime (CLT) / migration duration time, in words / Chemotactic Response Time (CRT) / time course of migration start, in words: normal subject eosinophils; for rate of cells having a high specific motility in the concentration gradient direction in the VD plot: CCL3, CCL5 5 μM, CXCL12, fMLP, PGD2 1 μM, vs control without factor (N.C.); for Chemotaxis Lifetime (CLT) / migration duration time, in words / Chemotactic Response Time (CRT) / time course of migration start, in words: concentration gradient of factor; for Chemotactic Response Time (CRT) / time course of migration start, in words: ACR viewed at 5 and 45 minutes
Procedure: Blood samples were obtained from patients and normal subjects, after a confirmation of informed consent. The blood samples were subjected to hemolytic reaction by water treatment and centrifugal separation, repeated twice, and thereafter a magnetic cell separation method was conducted so as to separate eosinophil therefrom. MACS (Miltenyi Biotec GmbH, Germany) was used for the magnetic cell separation, and the separation was performed by the negative selection method using anti-human CD3, CD14, CD16, and CD19 antibody-labeled paramagnetic microbeads. The magnetic cell separation method was conducted pursuant to the manual of Miltenyi Biotec GmbH. The cells obtained were washed with PBS, and thereafter suspended in RPMI-HEPES culture medium containing 1% FCS at the concentration of 5×10^6 cells/ml, and used for the subsequent experiment.
Structural setting of the system and the measuring method were carried out according to the aforementioned procedure.
In the measurement, the observation support unit of the system was filled up with RPMI-HEPES medium containing 1% FCS, and maintained at 37° C. to have the cells and the chemotactic factor being injected, and thereafter, the state of the cells was subjected to the time-lapse imaging. […] Imaging was performed at time-lapse intervals of one minute, and twelve samples at the maximum per one holder were subjected to the imaging in parallel.
The aforementioned program was used for the identification and tracking of the cell. […] With this software, when a user highlighted an area in the image as an analysis target, the cells in the area were identified and tracking was executed. Automatic cell tracking was performed according to the following procedure; a positional change in the time-lapse image was corrected, and then a position of the cell being the closest in the adjacent time-frame photo was sequentially designated and stored. Since an error might be included in the automatic cell tracking, the migratory pathway of the cell being obtained was appropriately corrected based on a visual judgment by a human. […] According to the obtained migratory pathway information of the cells, one by one, time-series data such as the position, velocity, and directionality of the cells was acquired. In order to avoid exerting an effect of artificial bias on the data, a third person, who was not informed of the details of the experiment, conducted the cell identification and tracking works by using the present software.
VD plot (Velocity-Direction plot) was obtained by calculating median values, as to the values of the time-series data of the velocity and directionality of individual cells, plotting the median value of velocity on the vertical axis and the median value of directionality on the horizontal axis. A gate was set on the graph surface, indicating an index of the cellular chemotaxis, and a rate of the cells included in the gate was obtained. Mann-Whitney U-test was employed for a difference test concerning the rate of the cells.
In the calculation of Chemotactic Response Time (CRT) and of Chemotaxis Lifetime (CLT) of the cell, an Exponential Moving Average (EMA) was calculated based on time-series data of the cell migration velocity, and the cellular chemotaxis was defined by the state where the value of EMA exceeded a certain threshold. In other words, CRT was a time period from start of the measurement until the time when the EMA firstly exceeded the threshold, and an elapsed time from the time when EMA firstly exceeded the threshold until it fell below the threshold was CLT.

[2] = test system: eosinophils from normal, allergy/atopy and asthma patient donors; assay: Chemotaxis analysis of eosinophils of allergy/atopy and asthma patients compared with normal subjects (TAXIScan; VD plot, CRT and CLT analysis)

Row | Molecule | rate of cells having a high specific motility in the concentration gradient direction in the VD plot [1] | Chemotaxis Lifetime (CLT) / migration duration time, in words [1] | Chemotactic Response Time (CRT) / time course of migration start, in words [1] | share of eosinophils that migrated according to the CRT analysis ([1]; normal subjects) | rate of cells that continued migration for five minutes or more (CLT analysis), patients compared to normal subjects ([2]; allergy/atopy patients and asthma patients vs normal subjects) | cell motility from VD plot, asthma patients (III) compared to normal subject (I) ([2]; eosinophils of asthma patients, PGD2 or fMLP 1 μM gradient) | CRT analysis: difference between patient groups and normal subjects ([2]; groups I, II, III)
1 | CSCC[C@H](NC=O)C(=O)N[C@@H](CC(C)C)C(=O)N[C@@H](Cc1ccccc1)C(=O)O [fMLP, N-formyl-methionyl-leucyl-phenylalanine] | little difference from the control | most of the cells stopped migration within 15 minutes; also recorded: relatively shorter than the other factors | started moving gradually as time advanced | about half | not found a significant difference | significant difference | not a large difference
2 | CCL3: Recombinant Human MIP-1 alpha (CCL3; Macrophage Inflammatory Protein-1 alpha), purchased from PeproTech (protein, UniProt P10147 24-92, looked up) C-C motif chemokine 3: SLAADTPTACCFSYTSRQIPQNFIADYFETSSQCSKPGVIFLTKRSRQVCADPSEEWVQKYVSDLELSA | high motility | short relative to CCL5 or CXCL12 | started moving gradually as time advanced | – | – | – | –
3 | CCL5: Recombinant Human RANTES (CCL5; Regulation upon Activation Normal T cell Express Sequence), purchased from PeproTech (protein, UniProt P13501 24-91, looked up) C-C motif chemokine 5: SPYSSDTTPCCFAYIARPLPRAHIKEYFYTSGKCSNPAVVFVTRKNRQVCANPEKKWVREYINSLEMS | little difference from the control | long lifetime tendency | hardly started migration; also recorded: turned up gradually after lapse of approximately one hour | – | – | – | –
